These results are taken from patent publication US9670162B2, “Mitochondrial aldehyde dehyrogenase-2 modulators and methods of use thereof” (The Board of Trustees of the Leland Stanford Junior …, priority 2013, dated 2017).

Data set [1] in a line: RLM stability T1/2. Type of data set: in vitro ADME. The conditions noted are these: rat, liver microsomes. On the procedure:
(§1) In vitro ADMET of compounds of the present disclosure was carried out according to known methods in the art. Below are data for certain compounds of the present disclosure.
In general terms: Liver microsomes are vesicles of endoplasmic reticulum, rich in cytochrome P450 enzymes.

Data set [2] is described as follows: Caco-2 permeability. The data set is classed as in vitro ADME. To be noted: human; for Papp A→B: read-out: Caco-2 Papp A-B; for efflux ratio: read-out: Caco-2 Papp B-A/A-B. On the procedure:
as §1
A general note: Caco-2 cells form a polarised layer with tight junctions and transporters.

In data set [3] the target is CYP2C9 (Homo sapiens, UniProt P11712). Nature of the data set: Cyp inhibition 2C9. Type of data set: in vitro ADME. As for the experimental part:
as §1

Data set [4] in a line: Plasma protein binding (PPB), rat. Type of data set: in vitro ADME. As for the experimental part: as §1
Data set [5] in a line: Plasma protein binding (PPB), human. The data set is classed as in vitro ADME. As for the experimental part:
as §1

Data set [6] concerns the target CYP3A4 (Homo sapiens, UniProt P08684). Put plainly: Cyp inhibition 3A4. The data set is classed as in vitro ADME. To be noted: 10 μM. On the procedure: as §1
A short description of data set [7]: NHPLM stability T1/2. The data set is classed as in vitro ADME. To be noted: monkey, liver microsomes. As for the experimental part:
as §1

Data set [8] deals with T1, human ALDH2*2 recombinant mutant enzyme (E487K) (Homo sapiens, UniProt P05091, E504K).
T1 construct: His-tag (pTrcHis vector) (N); made in house; host or cells: E. coli BL21
T1 sequence (P05091 18-517 E504K): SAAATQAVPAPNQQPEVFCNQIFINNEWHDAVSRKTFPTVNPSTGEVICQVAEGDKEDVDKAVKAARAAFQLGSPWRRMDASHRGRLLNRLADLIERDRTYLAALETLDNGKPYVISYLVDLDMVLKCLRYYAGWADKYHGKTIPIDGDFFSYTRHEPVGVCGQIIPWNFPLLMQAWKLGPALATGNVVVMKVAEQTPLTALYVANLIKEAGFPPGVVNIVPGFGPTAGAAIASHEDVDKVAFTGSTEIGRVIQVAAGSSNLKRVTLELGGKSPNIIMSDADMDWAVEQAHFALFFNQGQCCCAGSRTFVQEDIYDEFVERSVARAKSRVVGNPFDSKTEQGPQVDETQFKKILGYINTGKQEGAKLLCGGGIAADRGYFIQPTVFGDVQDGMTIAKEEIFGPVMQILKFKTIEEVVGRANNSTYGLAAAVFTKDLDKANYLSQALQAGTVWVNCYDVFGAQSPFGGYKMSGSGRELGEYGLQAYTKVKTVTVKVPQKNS
Nature of the data set: ALDH2 enzymatic assay (NADH at 340 nm), recombinant mutant enzyme. The conditions noted are these: activation relative to benchmarks control 1 and compound 161. The arrangement: key: −: no activation or inhibition; +: activation less than control 1; ++: activation similar to control 1, within 10%; +++: activation more than control 1 and less than control (compound 161); ++++: activation similar to compound 161, within 10%. Type of data set: biochemical.

Data set [9] in a line: Aqueous solubility. The data set is classed as physicochemical. On the procedure:
as §1

Data set [10] in a line: Plasma stability, human. Type of data set: in vitro ADME. The conditions noted are these: plasma. On the procedure: as §1
In data set [11] the target is T2, human ALDH2 wild type (Homo sapiens, UniProt P05091).
T2 construct: His-tag (pTrcHis vector) (N); made in house; host or cells: E. coli BL21
T2 sequence (P05091 18-517): T1 sequence (P05091 18-517 E504K) with K487E
Put plainly: ALDH2 enzymatic assay (NADH at 340 nm), recombinant wild type enzyme. To be noted: activation relative to benchmarks control 1 and compound 161. The data set is classed as biochemical. The arrangement: key: −: no activation or inhibition; +: activation less than control 1; ++: activation similar to control 1, within 10%; +++: activation more than control 1 and less than control (compound 161); ++++: activation similar to compound 161, within 10%.

Data set [12] in a line: LogD (pH 7.4). The data set is classed as physicochemical. On the procedure:
as §1

Data set [13] in a line: Plasma stability, rat. The data set is classed as in vitro ADME. As for the experimental part: as §1
The target in data set [14] is CYP2D6 (Homo sapiens, UniProt P10635). Nature of the data set: Cyp inhibition 2D6. The data set is classed as in vitro ADME. On the procedure:
as §1

The nature of data set [15]: HLM stability T1/2. The data set is classed as in vitro ADME. The conditions noted are these: human, liver microsomes; read-out: HLM T1/2. As for the experimental part: as §1
In data set [16] the target is T3, CYP1A2 (Homo sapiens, UniProt P05177).
T3 sequence (P05177 1-516): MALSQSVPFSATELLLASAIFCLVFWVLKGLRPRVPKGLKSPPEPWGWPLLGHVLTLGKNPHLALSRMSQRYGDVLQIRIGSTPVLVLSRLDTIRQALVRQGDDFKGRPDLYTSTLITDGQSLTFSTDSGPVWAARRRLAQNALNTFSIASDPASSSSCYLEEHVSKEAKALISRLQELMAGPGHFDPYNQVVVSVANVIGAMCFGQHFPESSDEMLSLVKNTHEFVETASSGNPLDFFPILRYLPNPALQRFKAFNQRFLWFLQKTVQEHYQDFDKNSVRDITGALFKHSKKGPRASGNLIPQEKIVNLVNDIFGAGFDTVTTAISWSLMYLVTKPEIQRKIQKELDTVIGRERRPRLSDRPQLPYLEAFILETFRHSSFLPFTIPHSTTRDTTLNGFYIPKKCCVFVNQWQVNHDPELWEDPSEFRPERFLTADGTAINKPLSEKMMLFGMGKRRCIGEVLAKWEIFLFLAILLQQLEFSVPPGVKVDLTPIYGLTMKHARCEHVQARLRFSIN
Nature of the data set: Cyp inhibition 1A2. Type of data set: in vitro ADME. The conditions noted are these: 10 μM. As for the experimental part: as §1

Data set [17] is described as follows: MLM stability T1/2. Type of data set: in vitro ADME. The conditions noted are these: mouse, liver microsomes. As for the experimental part:
as §1

Data set [18] addresses CYP2C19 (Homo sapiens, UniProt P33261). Put plainly: Cyp inhibition 2C19. The data set is classed as in vitro ADME. The conditions noted are these: 10 μM. On the procedure: as §1

Positions count from the first letter of the chain named.

CYP3A4, sequence (P08684 whole entry): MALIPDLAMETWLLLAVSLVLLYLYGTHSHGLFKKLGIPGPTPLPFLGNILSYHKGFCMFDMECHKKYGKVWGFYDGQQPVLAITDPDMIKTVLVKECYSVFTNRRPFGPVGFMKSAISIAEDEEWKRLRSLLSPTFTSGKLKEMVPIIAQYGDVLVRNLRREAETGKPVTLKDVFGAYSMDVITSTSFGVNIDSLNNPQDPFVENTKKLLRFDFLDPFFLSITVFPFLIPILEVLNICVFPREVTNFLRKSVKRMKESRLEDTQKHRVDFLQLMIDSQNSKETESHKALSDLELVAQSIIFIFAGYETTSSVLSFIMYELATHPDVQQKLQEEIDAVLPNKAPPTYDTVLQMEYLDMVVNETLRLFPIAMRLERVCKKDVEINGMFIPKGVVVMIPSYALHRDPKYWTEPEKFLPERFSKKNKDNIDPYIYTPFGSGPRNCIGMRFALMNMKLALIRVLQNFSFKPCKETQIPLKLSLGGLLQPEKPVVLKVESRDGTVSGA
CYP2C19, sequence (P33261 whole entry): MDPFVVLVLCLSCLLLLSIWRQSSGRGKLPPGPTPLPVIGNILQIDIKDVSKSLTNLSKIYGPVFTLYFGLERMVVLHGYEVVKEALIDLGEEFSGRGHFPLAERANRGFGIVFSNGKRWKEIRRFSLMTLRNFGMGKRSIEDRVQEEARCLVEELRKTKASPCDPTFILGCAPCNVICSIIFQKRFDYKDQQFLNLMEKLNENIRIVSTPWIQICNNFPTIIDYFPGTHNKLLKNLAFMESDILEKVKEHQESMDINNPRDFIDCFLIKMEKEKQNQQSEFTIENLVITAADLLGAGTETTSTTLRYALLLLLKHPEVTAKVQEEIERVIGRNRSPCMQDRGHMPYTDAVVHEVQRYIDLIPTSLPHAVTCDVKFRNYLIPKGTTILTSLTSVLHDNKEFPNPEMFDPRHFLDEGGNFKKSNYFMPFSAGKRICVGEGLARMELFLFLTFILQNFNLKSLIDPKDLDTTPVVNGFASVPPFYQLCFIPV
CYP2D6, sequence (P10635 whole entry): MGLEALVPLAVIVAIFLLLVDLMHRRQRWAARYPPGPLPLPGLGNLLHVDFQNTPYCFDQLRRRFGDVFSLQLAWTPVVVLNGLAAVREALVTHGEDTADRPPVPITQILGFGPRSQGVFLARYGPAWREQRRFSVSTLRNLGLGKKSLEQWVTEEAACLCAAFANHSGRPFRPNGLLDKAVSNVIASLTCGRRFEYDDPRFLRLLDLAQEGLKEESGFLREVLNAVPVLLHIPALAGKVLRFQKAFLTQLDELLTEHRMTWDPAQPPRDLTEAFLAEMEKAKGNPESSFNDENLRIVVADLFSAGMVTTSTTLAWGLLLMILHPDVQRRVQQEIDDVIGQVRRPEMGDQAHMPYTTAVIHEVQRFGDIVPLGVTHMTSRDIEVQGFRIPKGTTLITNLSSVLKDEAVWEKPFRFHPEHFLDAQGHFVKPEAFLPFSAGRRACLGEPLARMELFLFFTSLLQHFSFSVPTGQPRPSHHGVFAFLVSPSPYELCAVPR
CYP2C9, sequence (P11712 whole entry): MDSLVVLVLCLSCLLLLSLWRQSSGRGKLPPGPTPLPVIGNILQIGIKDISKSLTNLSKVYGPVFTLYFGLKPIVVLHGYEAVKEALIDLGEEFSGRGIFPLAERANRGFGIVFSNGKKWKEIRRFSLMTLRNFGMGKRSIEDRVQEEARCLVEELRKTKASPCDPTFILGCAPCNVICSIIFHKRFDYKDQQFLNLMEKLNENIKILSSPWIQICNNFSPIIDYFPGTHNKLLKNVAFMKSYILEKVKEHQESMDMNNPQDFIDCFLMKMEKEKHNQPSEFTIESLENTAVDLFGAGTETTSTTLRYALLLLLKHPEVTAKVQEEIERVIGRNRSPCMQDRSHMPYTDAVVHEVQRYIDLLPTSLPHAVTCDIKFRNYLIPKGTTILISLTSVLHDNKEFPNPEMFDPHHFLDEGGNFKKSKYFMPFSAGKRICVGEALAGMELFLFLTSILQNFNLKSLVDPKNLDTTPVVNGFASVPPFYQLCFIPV

In the case of `COc1ccc(CNC(=O)c2c(Cl)cc[n+]([O-])c2OCC2CC2)cc1F` [Compound 169], the half-life in data set [1] was 82.5 min; in data set [7], 51.3 min; in data set [15] it was 3.85 min; in data set [17], 100 min. The Papp A→B in [2] was 1.22 ×10⁻⁶ cm/s. This compound yielded a basolateral-to-apical permeability (Papp B→A) in data set [2] of 13.1 ×10⁻⁶ cm/s. The efflux ratio in [2] amounted to 10.7. Also, the inhibition at 10 µM in data set [3] is -12%; in [6], 7.7%; in data set [14], 0.81%; in data set [16], 1.1%; in data set [18], 3.5%. Moreover, the fraction unbound was 0.367 in data set [4] and 0.098 in [5]. For the same compound, in [8], the “ALDH2 (mutant)” value is listed as “++”. In addition, in data set [9], the “Aqu. Solu.” value was 272 µg/mL. The same compound returned a Plasma stability Human in [10] of 100%. In addition, the “ALDH2 (wild-type)” value in data set [11] is reported as “+”. This compound registered a logD in data set [12] of 1.6. Moreover, the Plasma stability Rat in data set [13] came to 100%.
Turning to `O=C(NCc1ccc2c(c1)OCO2)c1c(Cl)cccc1Cl` [Control 1, reference compound], the half-life is 1.33 min in data set [1], 1.57 min in data set [7], 21.2 min in data set [15] and 0.753 min in data set [17]. Moreover, in data set [2], the Papp A→B stood at 16.6 ×10⁻⁶ cm/s. Moreover, the apparent permeability from basolateral to apical (Papp B→A) in data set [2] came to 11.7 ×10⁻⁶ cm/s. In addition, in data set [2], the efflux ratio is 0.7. Also, the inhibition at 10 µM is 16.3% in data set [3]; 83.5% in data set [6]; 9.1% in data set [14]; 31.9% in data set [16]; 72.4% in data set [18]. The fraction unbound is 0.037 in data set [4] and 0.025 in data set [5]. The “ALDH2 (mutant)” value in data set [8] is recorded as “++”. For the same compound, the “Aqu. Solu.” value in [9] came to 12 µg/mL. Moreover, the Plasma stability Human in [10] turned out to be 100%. Besides, in data set [11], the “ALDH2 (wild-type)” value is recorded as “++”. In data set [12], this compound showed a logD of 3.4. The Plasma stability Rat in data set [13] was 100%.

One may read the Papp A→B as the apparent permeability from the apical to the basolateral side of a cell layer. As usually defined, the Papp B→A is the apparent permeability from the basolateral to the apical side of a cell layer. Usually inhibition stands for the change of the read-out against control, counted positive when it falls. As a reminder, the fraction unbound is the share of the substance not bound to proteins or other matrix. Usually logD stands for lipophilicity at a set pH, counting ionised and neutral species.
